US20260083865A1, “PROSTATE SPECIFIC MEMBRANE ANTIGEN (PSMA) LIGANDS AND USE THEREOF” (priority 2022, published 2026)
Read-outs that look alike come from different tables or passages of the source. Blank lines part the entries; values can stand above or below the molecule they belong to. Numbered stars: 1 amine (or outer) side, 2 acyl side, 3 side chain; on linkers, the order of the positions; unused ones are H or OH. Bridge positions count the residues as written; N and C are the ends. Square brackets hold non-standard residues; d marks the D form. Peptide text beside a SMILES is read from it. * marks the point of attachment. DOTA = O=C(O)CN1CCN(CC(=O)O)CCN(CC(=O)*)CCN(CC(=O)O)CC1; Phe(4-Cl) = N[C@@H](Cc1ccc(Cl)cc1)C(=O)O; Propanoyl(3-SO2NH2) = NS(=O)(=O)CCC(=O)*; X1 = O=C(CC1CCN([*:1])CC1)[*:2]; Lys(Me) = CNCCCC[C@H](N)C(=O)O; Tle = CC(C)(C)[C@H](N)C(=O)O; Aib = CC(C)(N)C(=O)O; Ahx = NCCCCCC(=O)O; GABA = NCCCC(=O)O; βAla = NCCC(=O)O

Tests used:
[1] = target: T1, PSMA-expressing C4-2 cells (Homo sapiens, UniProt Q04609); experiment: FACS binding assay (competition with 50 nM PSM-0183); settings: read-out: pIC50 [C4-2] CAT (converted)
T1 construct: PSMA-expressing C4-2 cells (ATCC, Cat. No. CRL-3314) were cultured in RPMI-1640; host or cells: C4-2 cells
Summary of the method: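 Competition format: fluorescent tracer PSM-0183 (50 nM) displaced from PSMA on C4-2 cells by a test compound titration over 1 h at 4 °C. Bound tracer was quantified as flow-cytometric AF488 median fluorescence after washing. Four-parameter logistic fits of MFI data gave IC50 and pIC50.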

[2] = target: T2, Fc-fusion protein of human PSMA (hPSMA-Fc) (Homo sapiens, UniProt Q04609); experiment: Surface plasmon resonance assay (Biacore T200, single cycle kinetic); format: binding; settings: hPSMA-Fc, 25° C., read-out: pKD CAT (converted)
T2 construct: purchased Acro Biosystems PSA-H5264
Summary of the method: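 KD, expressed as pKD, came from 1:1 Langmuir fits of reference- and buffer-blank-subtracted SPR data. The runs were single-cycle kinetics at 25° C in HBST/0.1% DMSO over human PSMA-Fc, captured to ~1000 RU on a peptide-coated CM5 surface and regenerated with 10 mM glycine pH 1.5.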

[3] = pIC50 category of FACS binding, C4-2 cells
[4] = pKD category for PSMA SPR activity assay
[5] = FACS binding, PSMA-expressing C4-2 cells, pIC50 category
[6] = FACS binding, C4-2 cells, competition with 50 nM PSM-0183, category
[7] = SPR, single cycle kinetic, category

T1 sequence (Q04609 whole entry): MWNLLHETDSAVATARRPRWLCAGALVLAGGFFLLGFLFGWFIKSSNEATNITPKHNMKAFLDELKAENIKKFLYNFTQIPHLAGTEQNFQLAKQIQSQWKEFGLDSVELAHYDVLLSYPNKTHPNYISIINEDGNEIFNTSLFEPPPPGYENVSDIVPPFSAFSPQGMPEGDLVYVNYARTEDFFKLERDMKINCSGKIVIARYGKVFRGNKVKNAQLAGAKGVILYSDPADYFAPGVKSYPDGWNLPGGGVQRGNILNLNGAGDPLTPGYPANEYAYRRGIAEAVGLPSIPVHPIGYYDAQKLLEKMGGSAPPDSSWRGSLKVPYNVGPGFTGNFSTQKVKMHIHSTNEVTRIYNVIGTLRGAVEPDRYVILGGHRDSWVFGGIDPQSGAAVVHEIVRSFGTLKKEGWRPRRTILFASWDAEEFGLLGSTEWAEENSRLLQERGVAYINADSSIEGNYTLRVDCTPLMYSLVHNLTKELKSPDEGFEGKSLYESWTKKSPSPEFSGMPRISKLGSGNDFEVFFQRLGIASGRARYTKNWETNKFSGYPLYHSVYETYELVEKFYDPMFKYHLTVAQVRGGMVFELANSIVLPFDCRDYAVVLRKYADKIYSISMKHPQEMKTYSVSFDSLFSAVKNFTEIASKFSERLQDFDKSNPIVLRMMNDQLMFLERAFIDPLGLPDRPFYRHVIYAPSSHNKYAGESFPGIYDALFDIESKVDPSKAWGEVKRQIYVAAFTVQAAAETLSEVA
T2 sequence (Q04609 44-750 limits assumed): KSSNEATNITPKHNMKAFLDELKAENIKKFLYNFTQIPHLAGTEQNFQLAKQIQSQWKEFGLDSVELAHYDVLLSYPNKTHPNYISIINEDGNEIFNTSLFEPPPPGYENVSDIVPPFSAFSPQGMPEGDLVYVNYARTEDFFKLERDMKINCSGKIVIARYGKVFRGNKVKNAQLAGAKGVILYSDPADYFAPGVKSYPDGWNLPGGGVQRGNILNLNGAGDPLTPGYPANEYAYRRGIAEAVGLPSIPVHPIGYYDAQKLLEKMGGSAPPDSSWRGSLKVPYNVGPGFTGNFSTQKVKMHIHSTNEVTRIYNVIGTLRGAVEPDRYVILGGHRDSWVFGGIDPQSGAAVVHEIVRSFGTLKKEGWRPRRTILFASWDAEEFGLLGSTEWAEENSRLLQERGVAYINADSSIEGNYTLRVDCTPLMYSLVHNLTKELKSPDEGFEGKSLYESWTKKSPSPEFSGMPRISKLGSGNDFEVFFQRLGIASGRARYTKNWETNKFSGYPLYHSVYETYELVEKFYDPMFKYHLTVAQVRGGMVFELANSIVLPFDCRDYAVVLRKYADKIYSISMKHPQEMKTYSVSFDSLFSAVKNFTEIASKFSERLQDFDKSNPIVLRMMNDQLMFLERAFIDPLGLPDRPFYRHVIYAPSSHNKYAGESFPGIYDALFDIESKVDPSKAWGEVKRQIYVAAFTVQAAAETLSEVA

SMILES: CC(=O)N[C@H](C(=O)NC(C)(C)C(=O)N[C@@H](Cc1ccccc1)C(=O)N[C@H]1CSSC[C@@H](C(=O)N[C@H](C(=O)NCCCC(N)=O)C(C)(C)C)NC(=O)[C@H](CC(N)=O)NC(=O)C(C)(C)NC(=O)[C@H](CCCNC(=N)N)NC(=O)[C@H](CCCCN)NC1=O)[C@@H](C)O [PSM-0297, Ac-Thr-Aib-Pho-[Cys-Lys-Arg-Aib-Asn-Cys]-Tle-Gab-NH2] (Ac-T[Aib]FCKR[Aib]NC[Tle][GABA]-NH2; disulfide 4-9)
- IC50 [1, 5]: < 0.2 µM
- Kd ([2]; PSMA SPR assay, pKD category): < 0.0126 µM

SMILES: C[C@@H](O)[C@H](NC(=O)[C@@H](NC(=O)[C@@H]1CSSC[C@H](NC(=O)[C@H](Cc2ccc(Cl)cc2)NC(=O)C(C)(C)NC(=O)CCS(N)(=O)=O)C(=O)N[C@@H](CCCCN)C(=O)N[C@@H](CCCNC(=N)N)C(=O)NC(C)(C)C(=O)N[C@@H](CC(N)=O)C(=O)N1)C(C)(C)C)C(=O)N1CCC(CC(=O)N[C@H](CCCCNC(=O)CN2CCN(CC(=O)O)CCN(CC(=O)O)CCN(CC(=O)O)CC2)C(N)=O)CC1 [PSM-0215, SaPr-Aib-Pcf-[Cys-Lys-Arg-Aib-Asn-Cys]-Tle-Thr-Cmp-lys(DOTA)-NH2] ({Propanoyl(3-SO2NH2)}-[Aib][Phe(4-Cl)]CKR[Aib]NC[Tle]T[X1][dK](DOTA)-NH2; disulfide 3-8)
- IC50 [1, 6]: < 0.2 µM
- Kd [2, 7]: 0.0126 to 0.126 µM

SMILES: C[C@@H](O)[C@H](NC(=O)CN1CCN(CC(=O)O)CCN(CC(=O)O)CCN(CC(=O)O)CC1)C(=O)NC(C)(C)C(=O)N[C@@H](Cc1ccc(Cl)cc1)C(=O)N[C@H]1CSSC[C@@H](C(=O)N[C@H](C(=O)NCCC(N)=O)C(C)(C)C)NC(=O)[C@H](CC(N)=O)NC(=O)C(C)(C)NC(=O)[C@H](CCCNC(=N)N)NC(=O)[C@H](CCCCN)NC1=O [PSM-0216, DOTA-Thr-Aib-Pcf-[Cys-Lys-Arg-Aib-Asn-Cys]-Tle-Bal-NH2] ({DOTA}-T[Aib][Phe(4-Cl)]CKR[Aib]NC[Tle][βAla]-NH2; disulfide 4-9)
- IC50 [1, 6]: < 0.2 µM
- Kd [2, 7]: < 0.0126 µM

SMILES: CC(=O)NC(C)(C)C(=O)N[C@@H](Cc1ccccc1)C(=O)N[C@H]1CSSC[C@@H](C(=O)N[C@H](C(=O)N[C@H](C(N)=O)[C@@H](C)O)C(C)(C)C)NC(=O)[C@H](CC(N)=O)NC(=O)C(C)(C)NC(=O)[C@H](CCCNC(=N)N)NC(=O)[C@H](CCCCN)NC1=O [PSM-0228, Ac-Aib-Phe-[Cys-Lys-Arg-Aib-Asn-Cys]-Tle-Thr-NH2] (Ac-[Aib]FCKR[Aib]NC[Tle]T-NH2; disulfide 3-8)
- IC50 [1, 6]: < 0.2 µM
- Kd [2, 7]: < 0.0126 µM

Continued, values first:

- IC50 [1, 3]: < 0.2 µM
- Kd [2, 4]: < 0.0126 µM
SMILES: CNCCCC[C@@H]1NC(=O)[C@@H](NC(=O)[C@H](Cc2ccc(Cl)cc2)NC(=O)C(C)(C)NC(=O)[C@@H](NC(=O)CC2CCN(C(=O)CN3CCN(CC(=O)O)CCN(CC(=O)O)CCN(CC(=O)O)CC3)CC2)[C@@H](C)O)CSSC[C@@H](C(=O)N[C@H](C(=O)N[C@H](C(N)=O)[C@@H](C)O)C(C)(C)C)NC(=O)[C@H](CC(N)=O)NC(=O)C(C)(C)NC(=O)[C@H](CCCNC(=N)N)NC1=O [PSM-0410, DOTA-Cmp-Thr-Aib-Pcf-[Cys-Lys(Me)-Arg-Aib-Asn-Cys]-Tle-Thr-NH2] ({DOTA}-[X1]T[Aib][Phe(4-Cl)]C[Lys(Me)]R[Aib]NC[Tle]T-NH2; disulfide 5-10)

- IC50 [1, 3]: < 0.2 µM
- Kd [2, 4]: < 0.0126 µM
SMILES: C[C@@H](O)[C@H](NC(=O)[C@@H](NC(=O)[C@@H]1CSSC[C@H](NC(=O)[C@H](Cc2ccccc2)NC(=O)C(C)(C)NC(=O)CCCCCNC(=O)CN2CCN(CC(=O)O)CCN(CC(=O)O)CCN(CC(=O)O)CC2)C(=O)N[C@@H](CCCCN)C(=O)N[C@@H](CCCNC(=N)N)C(=O)NC(C)(C)C(=O)N[C@@H](CC(N)=O)C(=O)N1)C(C)(C)C)C(N)=O [PSM-0513, DOTA-Ahx-Aib-Phe-[Cys-Lys-Arg-Aib-Asn-Cys]-Tle-Thr-NH2] ({DOTA-Ahx}-[Aib]FCKR[Aib]NC[Tle]T-NH2; disulfide 3-8)

- IC50 [1, 5]: < 0.2 µM
- Kd ([2]; PSMA SPR assay, pKD category): < 0.0126 µM
SMILES: C[C@@H](O)[C@H](NC(=O)[C@@H](NC(=O)[C@@H]1CSSC[C@H](NC(=O)[C@H](Cc2ccc(Cl)cc2)NC(=O)C(C)(C)NC(=O)CCCCCNC(=O)CN2CCN(CC(=O)O)CCN(CC(=O)O)CCN(CC(=O)O)CC2)C(=O)N[C@@H](CCCCN)C(=O)N[C@@H](CCCNC(=N)N)C(=O)NC(C)(C)C(=O)N[C@@H](CC(N)=O)C(=O)N1)C(C)(C)C)C(N)=O [PSM-0310, DOTA-Ahx-Aib-Pcf-[Cys-Lys-Arg-Aib-Asn-Cys]-Tle-Thr-NH2] ({DOTA-Ahx}-[Aib][Phe(4-Cl)]CKR[Aib]NC[Tle]T-NH2; disulfide 3-8)
